One series has as its target Pol-β (Homo sapiens, UniProt P06746). Description: Pol-β-directed strand-displacement synthesis, reconstituted in vitro assay. In kind it is biochemical. To be noted: 0.5, 1, 2.5 and 5 μM. How it is done:
(§1) Lanes 4-7 contained increasing concentrations of NSC-30049 (0.5, 1, 2.5, and 5 μM, respectively). The arrows indicate the positions of the 63-mer substrate and the products. […] Data are representative of three different experiments.

The target in another series is Fen1 (Homo sapiens, UniProt P39748). Description: Fen1 activity in vitro. In kind it is biochemical. To be noted: 0.5-5 μM; Fen1 1 nM. As for the experimental part: as §1
In the next series the target is APE1 (Homo sapiens, UniProt P27695). The series is described as follows: fluorescence anisotropy, APE1 binding to AP-site DNA. The source says: FIGS. 7A and 7B show the effect of NSC-30049 on the APE1 affinity for AP-lesion containing DNA. […] FIG. 7B is a table showing the apparent Kd values of the data. Values are the mean±SD of triplicate estimations.
The small molecule inhibitor (SMI), NSC-30049, was identified as an inhibitor of APE1 endonuclease activity by molecular docking.

A further series in a line: solubility in water. In kind it is physicochemical.
The test system of the next series is PANC1. Description: MTT assay, pancreatic cancer cell line. In kind it is cell-based, human. The following applies: Homo sapiens, PANC-1; PANC1 (dFdC-resistant); single agent; 72 h; read-out: IC50.
The next series concerns BxPC3. The series is described as follows: MTT assay, pancreatic cancer cell line. In kind it is cell-based, human. To be noted: Homo sapiens, BXPC-3; BxPC3 (dFdC-sensitive); single agent; 72 h; read-out: IC50.
A further series concerns HPAC. Description: MTT assay, pancreatic cancer cell line. In kind it is cell-based, human. To be noted: Homo sapiens; HPAC (dFdC-sensitive); single agent; 72 h; read-out: IC50.
Another series has as its system A172. Description: MTT assay, brain cancer cell line. It counts as cell-based. The following applies: Homo sapiens, A 172, 120 h, single agent, read-out: IC50 of NSC-30049. As for the experimental part:
(§2) The use of NSC-30049 as a chemopreventive agent for the treatment of brain cancer was also tested. NSC-30049 in combination with temozolomide was administered to brain cancer cell lines, including U118, U138, U87MG, A172, and T98 cell lines (Table 6). Cells were pretreated with the indicated concentrations of NSC-30049 followed by TMZ for 120 h. After treatment, cells were processed for the determination of viability by cell proliferation assay (MTT assay). The data from the graph was used for the determination of IC50, which is presented as the mean±SE of three different estimations. Increasing the concentration of NSC-30049 decreased the IC50 of temozolomide for all cell lines tested, regardless of whether they were MMR proficient or deficient.

For another series, the system named is T98. The series is described as follows: MTT assay, brain cancer cell line. In kind it is cell-based. To be noted: Homo sapiens, T98, 120 h, single agent, read-out: IC50 of NSC-30049. As for the experimental part:
as §2

A further series relates to U118. Description: MTT assay, brain cancer cell line. It counts as cell-based. The following applies: 120 h, single agent, read-out: IC50 of NSC-30049. How it is done:
as §2

The next series concerns U138. The series is described as follows: MTT assay, brain cancer cell line. In kind it is cell-based. To be noted: 120 h, single agent, read-out: IC50 of NSC-30049. As for the experimental part: as §2
The next series has as its system U87MG. The series is described as follows: MTT assay, brain cancer cell line. It counts as cell-based. The following applies: Homo sapiens, U-87 MG, 120 h, single agent, read-out: IC50 of NSC-30049. As for the experimental part: as §2
A further series concerns MiaPaCa2-Lu tumors. The series is described as follows: orthotopic MiaPaCa2-Lu tumors in athymic mice, tumor luciferase expression. It counts as in vivo. To be noted: combination treatment of NSC-30049 and CDDP. The source says: FIG. 8A depicts in situ imaging of orthotopic MiaPaCa2-Lu tumors growing in female athymic (nu/nu) mice.
In series [1] the test system is CD133, Nanog, Oct4, Sox2 expression in GBM-L0 stem cells. The series is described as follows: qRT-PCR of self-renewal genes in GBM-L0 stem cells. In kind it is cell-based. The following applies: 2.5 μM NSC-30049 + 10 or 100 μM TMZ, 36 h, compared to either alone. How it is done: (§3) Cells were pretreated with 2.5 μM of NSC30049 or 10 or 100 μM TMZ alone or in combination with NSC-30049 for 36 h. Then, total RNA was isolated and processed for gRT-PCR. Data presented are the mean±SE of three different measurements. […] Treatment with NSC-30049 or TMZ reduced the expression of aldehyde dehydrogenase gene Aldh1a7 in GBM-LO stem cell line in vitro, but not treatment with NSC-30049 and TMZ. Cells were pretreated with 2.5 μM of NSC30049 or 10 or 100 μM of TMZ alone or in combination with NSC-30049 for 36 h. Then, total RNA was isolated and processed for qRT-PCR. Data presented are the mean±SE of three different measurements.
(§4) Without being bound to a particular theory, the effect of administration of NSC-30049 in combination with temozolomide (TMZ) on the expression of self-renewal marker genes of […] was analyzed. Self-renewal marker genes are highly expressed in colon cancer stem cells compared to human parental cancer cells. qRT-PCR data of CD133+, Oct4, Sox2 and Nanog gene expression levels of GBM-L0 stem cells was obtained (FIG. 14A). Cells were pretreated with 2.5 μM of NSC30049 or 10 or 100 μM of TMZ alone or in combination with NSC-30049 for 36 h. Then, total RNA was isolated and processed for qRT-PCR. Data presented are the mean±SE of three different measurements. […]

Series [2] has as its system Aldh1a1 and Aldh1a7 expression in GBM-L0 stem cells. The series is described as follows: qRT-PCR of aldehyde dehydrogenase genes in GBM-L0 stem cells. It counts as cell-based. The following applies: 36 h. How it is done:
as §3, §4

1 compound from patent US9517244B2, “Therapeutic combinations for use in neoplasia” (University of Florida Research Foundation, Inc., priority 2011, dated 2016) can be followed below.

Chain of APE1 (P27695 whole entry): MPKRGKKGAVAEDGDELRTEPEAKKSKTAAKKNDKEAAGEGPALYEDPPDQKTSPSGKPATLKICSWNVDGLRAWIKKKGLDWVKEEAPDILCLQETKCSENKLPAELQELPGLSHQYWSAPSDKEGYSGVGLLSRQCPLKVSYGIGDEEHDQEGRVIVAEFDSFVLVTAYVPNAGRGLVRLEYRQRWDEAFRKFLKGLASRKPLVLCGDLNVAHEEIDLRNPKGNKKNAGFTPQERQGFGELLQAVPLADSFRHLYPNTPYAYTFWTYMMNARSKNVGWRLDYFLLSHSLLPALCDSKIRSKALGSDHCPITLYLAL
Chain of Fen1 (P39748 whole entry, species assumed): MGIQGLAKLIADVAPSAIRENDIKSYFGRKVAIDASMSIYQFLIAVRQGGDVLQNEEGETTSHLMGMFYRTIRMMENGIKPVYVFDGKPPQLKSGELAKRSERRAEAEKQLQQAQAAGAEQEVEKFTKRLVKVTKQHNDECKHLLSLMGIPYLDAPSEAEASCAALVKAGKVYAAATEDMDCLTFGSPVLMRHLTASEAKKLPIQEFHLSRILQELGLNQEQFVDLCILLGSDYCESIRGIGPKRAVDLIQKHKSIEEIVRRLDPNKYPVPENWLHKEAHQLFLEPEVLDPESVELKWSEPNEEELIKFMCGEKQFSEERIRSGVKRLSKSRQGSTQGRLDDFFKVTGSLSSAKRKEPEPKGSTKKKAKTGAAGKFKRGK

For the compound `ClCC=CC[N+]12CN3CN(CN(C3)C1)C2` [NSC-30049, 1-(4-Chloro-2-butenyl)-1λ˜5˜,3,5,7-tetraazatricyclo[3.3.1.1˜3,7˜]decane], the “effect on Pol-β-directed strand-displacement synthesis” value on Pol-β is given as “did not affect Pol-β-directed strand-displacement synthesis”. In addition, at Fen1, the “effect on Fen1 activity” value is given as “did not affect Fen1 activity”. In addition, the “binding of APE1 with AP-site DNA” value on APE1 is listed as “blocked the binding of APE1 with AP-site DNA in a dose-dependent manner”. In addition, the solubility in water result in “solubility in water” was “readily soluble in water”. Besides, the IC50 was found to be 5.12 ± 0.22 µM in the series with PANC1; 3.87 ± 0.24 µM in the series with BxPC3; 4.44 ± 0.28 µM in the series on HPAC; 6.5 ± 0.3 µM in the series on A172; 10.1 ± 0.3 µM in the series on T98; 2.6 ± 0.1 µM in the series on U118. The IC50 in the series on U138 was determined as 2.1 ± 0.1 µM; with U87MG, 5.6 ± 1 µM. The “inhibition of tumor growth (tumor luciferase expression)” value with MiaPaCa2-Lu tumors was “synergistic effect on the inhibition of MiaPaCa2-Lu tumor growth”. In addition, the “expression of CD133, Nanog, Oct4, and Sox2” value in series [1] was “significantly inhibited the expression of CD133, Nanog, Oct4, and Sox2”. Besides, the “expression of Aldh1a1” value in series [2] (2.5 μM NSC-30049 + 10 or 100 μM TMZ) is listed as “significantly inhibited the expression of Aldh1a1”. Further, the “expression of Aldh1a7” value in [2] (agent alone) is “inhibited”.
